Measurements as given in BindingDB's records for patent US10011627 (Youngene Therapeutics, 2018).

Legend:
[1] = biological target: T1, Sodium/glucose cotransporter 1 (Homo sapiens, UniProt P13866); test: Inhibitory Activity Assay
T1 sequence (P13866 whole entry): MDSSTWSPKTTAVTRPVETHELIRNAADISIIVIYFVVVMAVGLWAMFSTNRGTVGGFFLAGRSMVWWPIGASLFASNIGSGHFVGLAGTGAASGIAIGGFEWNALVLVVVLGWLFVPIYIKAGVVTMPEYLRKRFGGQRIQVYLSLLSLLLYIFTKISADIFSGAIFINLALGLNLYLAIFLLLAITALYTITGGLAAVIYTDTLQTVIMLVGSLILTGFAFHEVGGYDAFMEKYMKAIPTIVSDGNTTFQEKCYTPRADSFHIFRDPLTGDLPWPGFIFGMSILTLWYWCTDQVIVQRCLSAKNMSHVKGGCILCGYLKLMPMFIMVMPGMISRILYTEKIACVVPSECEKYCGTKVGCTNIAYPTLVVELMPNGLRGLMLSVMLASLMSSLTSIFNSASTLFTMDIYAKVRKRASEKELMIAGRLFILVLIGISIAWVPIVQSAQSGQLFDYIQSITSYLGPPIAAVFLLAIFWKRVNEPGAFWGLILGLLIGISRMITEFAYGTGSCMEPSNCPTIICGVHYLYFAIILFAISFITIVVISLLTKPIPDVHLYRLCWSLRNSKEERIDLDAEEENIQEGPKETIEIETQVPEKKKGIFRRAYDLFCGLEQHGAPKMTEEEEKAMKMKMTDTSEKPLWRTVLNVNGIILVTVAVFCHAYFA
Protocol: (§1) The following method was used to determine the inhibitory activity of the compounds of the present invention on SGLT1 and SGLT2. The experimental method is summarized as follows:SGLT1 and SGLT2 transiently transferred HEK293 cells were seeded in a 96-well plate. The density of the cells was 1-1.5×104. The cells were cultured at 37° C. and 5% CO2 for 48 hours, and then washed twice with 200 μL sodium-free buffer. 90 μL sodium-containing buffer of the test compound at different concentrations was added to the well. Each test compound was repeated in three wells for each concentration. The cells were cultured at 37° C. for 15 minutes, then 10 μL (in number 0.1 μCi [14C]) Methyl α-D-glucopyranoside was added to each well of the 96-well plate. The cells were further cultured at 37° C. for 2 hours, then the supernatant was discarded. The cells were washed twice with pre-chilled sodium-free buffer and then dissolved in 100 μL NaOH (200 mM). 100 μL scintillation solution was added, and mixed well. Scintiloscope was used for the quantitative detection of 14C.

[2] = biological target: T2, Sodium/glucose cotransporter 2 (Homo sapiens, UniProt P31639); test: Inhibitory Activity Assay
T2 sequence (P31639 whole entry): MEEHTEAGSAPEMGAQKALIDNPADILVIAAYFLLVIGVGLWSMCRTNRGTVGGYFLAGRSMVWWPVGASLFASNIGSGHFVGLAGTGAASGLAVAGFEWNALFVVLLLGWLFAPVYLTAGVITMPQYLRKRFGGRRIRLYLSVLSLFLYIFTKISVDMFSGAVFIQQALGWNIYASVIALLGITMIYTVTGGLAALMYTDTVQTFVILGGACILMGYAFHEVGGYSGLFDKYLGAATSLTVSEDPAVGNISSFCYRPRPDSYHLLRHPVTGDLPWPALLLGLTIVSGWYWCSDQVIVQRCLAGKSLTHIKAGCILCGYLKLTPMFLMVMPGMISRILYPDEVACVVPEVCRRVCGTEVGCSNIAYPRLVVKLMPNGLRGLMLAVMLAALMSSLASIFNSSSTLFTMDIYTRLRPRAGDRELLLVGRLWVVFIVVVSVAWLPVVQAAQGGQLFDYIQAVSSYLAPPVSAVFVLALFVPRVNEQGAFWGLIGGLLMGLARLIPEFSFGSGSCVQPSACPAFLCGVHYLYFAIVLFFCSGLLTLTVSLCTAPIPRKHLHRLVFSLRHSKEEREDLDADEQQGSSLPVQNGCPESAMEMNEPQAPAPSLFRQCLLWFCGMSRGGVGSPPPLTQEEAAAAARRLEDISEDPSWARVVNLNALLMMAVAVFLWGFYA
Protocol: as §1

IC50 [1] | IC50 [2] | Compound
301 nM | 4.3 nM | OC[C@H]1S[C@@H](c2ccc(C3CC3)c(Cc3ccc4c(c3)OCCO4)c2)[C@H](O)[C@@H](O)[C@@H]1O [US10011627, 5]
99.9 nM | 2.59 nM | Cc1cc(O)c([C@@H]2S[C@H](CO)[C@@H](O)[C@H](O)[C@H]2O)cc1Cc1ccc2c(c1)OCCO2 [US10011627, 6]
